{"source": "patent US8633314B2", "about": "“Forms of a multicyclic compound” (Cephalon, Inc., priority 2009, dated 2014)", "type_in_all_cases": "physicochemical", "key": {"[1]": {"experiment": "Well plate crystallization with added water (forms found)", "conditions": "for Forms Found: methyl acetate", "experimental": "B. Plates containing 10 volumes of Compound I (40 mg of Lot 7 in 400 μL) were heated from 20° C. to an initial temperature of 80° C. at a rate of 4.8° C./min and after 30 minutes, cooled at a slow (0.28° C./min), or fast (10° C./min) rate to a final temperature of 5° C. and kept at that temperature for 18 hours. The crystallization experiments were carried out in glass vial (4 mL) well plates, and solid material was isolated by filtration. The solid was dried at 57° C. for 10 hours."}, "[2]": {"experiment": "Variable temperature X-ray powder diffraction (VT-XRPD)", "experimental": "Variable temperature studies were performed under a nitrogen atmosphere with an Anton Paar TTK450 temperature chamber under computer control through an Anton Paar TCU100 temperature control unit. Two measurement schemes were used, restricted and continuous. In the restricted mode, measurements were made, only after the TK450 chamber reached the requested temperature. In the continuous mode, the sample was heated at 10° C./minute and fast scans were measured as the temperature changed. After the requested temperature was reached, the sample was cooled at 30 or 35° C./minute and a slower scan measured 25° C."}, "[3]": {"experiment": "Mechanical stress: grinding by mortar and pestle, milling by Wig-L-Bug", "experimental": "Approximately 100 mg of Compound I was ground at different times ranging from 5 to 27 min in an agate mortar. Samples were removed for XRPD and thermal analysis. The grinding process was stopped every 5 minutes to scrape and remix powder cakes at the curvature end of the jars to ensure homogenous grinding.\nA Wig-l-Bug® (Piketech, USA) was used to grind Compound I Form A0, HA0 and HB0 (mixture of Forms HC0 and HD0). Each sample (50 mg) was ground for periods of 5 and 10 minutes or until no change was observed. Each milling was carried out in a 2.82 cm^3 container using 0.9 g stainless steel ball ([…]). The vial is swung through a 6.5° arc at 3200 rpm, causing the ball to strike the end of the vial at over 100 Hz."}, "[4]": {"experiment": "Dynamic vapor sorption (DVS)", "experimental": "Gravimetric vapor sorption experiments were carried out using the DVS-HT instrument (Surface Measurement Systems, London, UK). This instrument measures the uptake and loss of vapor gravimetrically using a recording ultra-microbalance with a mass resolution of ±0.1 μg. The vapor partial pressure (±1.0%) around the sample was controlled by mixing saturated and dry carrier gas streams using electronic mass flow controllers. The desired temperature was maintained at ±0.1° C.\nThe samples (10-25 mg) were placed into the DVS-HT instrument at the desired temperature. Two types of dynamic vapor sorption experiments were performed: • 1. The sample was initially dried in stream of dry air (<0.1% relative humidity (RH)) for 20 hours to establish a dry mass and exposed to two 0-90% RH cycles (in 10% RH increments). • 2. The sample was exposed at 90% RH for 20 hours and exposed to two 90-0% RH cycles (in 10% RH increments). Infrared Spectrometry (FTIR)"}, "[5]": {"experiment": "Solid state stress stability (storage; XRPD and stability-indicating HPLC)", "experimental": "Typically 10 μL aliquots of the sample solutions were diluted to 1 mL with acetonitrile and the assay concentrations were determined from an average of duplicate injections using the following HPLC method. The purity and impurity analyses are done using conventional HPLC.\nCrystallization studies were performed to investigate polymorphism in 48 different solvents. Solvents were selected on the basis of acceptability (ICH Class 3 and 2) and to give a range of dielectric constants, dipole moments and functional groups. Two starting materials were selected: Form A0 and Lot 7 (a mixture of Form A0, Form HC0 and Form HD0). When possible, full characterization was performed on the new forms that were generated during the polymorphism screening of Compound I. This characterization consisted of: XRPD, thermal analysis, DVS, storage at 40° C./75% RH and purity.\nStress stability studies were performed to get a timely impression of the influence of temperature and humidity on form stability. A stability-indicating HPLC assay method was developed for quantitation of Compound I and its major degradation product, 7-methoxy-1,2,3,11-tetrahydro-5,11-diaza-benzo[a]trindene-4,6-dione, previously referred to as “Compound E”."}, "[6]": {"experiment": "Relative stability of slurries in water (XRPD of residual solid)", "conditions": "for Forms Found (XRPD of residual solid): water", "experimental": "Two ml of water was added to a few milligrams of Compound I forms. The samples were slurried overnight. A small sample of solid was removed and analyzed by XRPD. […] The hydrate form appears to be more thermodynamically stable than Form A0 between 5 and 45° C."}, "[7]": {"experiment": "Thermodynamic solubility of monohydrate forms in organic solvents", "experimental": "Experiments were set up to measure the thermodynamic solubility of these monohydrate forms at room temperature and 55° C. in ethyl acetate, MTBE and 1-pentanol."}, "[8]": {"conditions": "Irregular DVS (90 to 0% RH), listed as A0"}, "[9]": {"conditions": "Regular DVS (0 to 90% RH), listed as A0"}, "[10]": {"conditions": "Irregular DVS (90 to 0% RH), listed as HD0"}, "[11]": {"conditions": "Regular DVS (0 to 90% RH), listed as HD0"}}}
{"smiles": "COc1cccc2[nH]c3c4c(c5c(c3c12)C(=O)N(CN1CCN(C)CC1)C5=O)CCC4", "note": "[Form A0, 4,5,6,7-tetrahydro-11-methoxy-2-[(4-methyl-1-piperazinyl)methyl]-1H-cyclopenta[a]pyrrolo[3,4-c]carbazole-1,3(2H)-dione]", "values": [{"measurement": "form produced on crystallization from aqueous media", "setting": "[1]; aqueous media", "result": "a mixture of Forms HC0+HD0 is produced"}, {"measurement": "Forms Found", "setting": "[1]; 0.175 volumes of water", "result": "HC0, HD0"}, {"measurement": "Forms Found", "setting": "[1]; 0.25 volumes of water", "result": "HC0, HD0"}, {"measurement": "Forms Found", "setting": "[1]; 1 volume of water", "result": "HC0, HD0"}, {"measurement": "Forms Found", "setting": "[1]; 1.5 volumes of water", "result": "HC0, HD0"}, {"measurement": "solid-solid transformation (VT-XRPD)", "setting": "[2]; 20° C. to 250° C.", "result": "No solid-solid transformation takes place"}, {"measurement": "change in XRPD pattern after heating", "setting": "[2]; heated to 220° C., then exposure to ambient conditions", "result": "no significant change"}, {"measurement": "XRPD crystallinity after milling", "setting": "[3]; five minutes, Wig-l-Bug", "result": "crystallinity had been significantly reduced"}, {"measurement": "XRPD crystallinity after grinding", "setting": "[3]; twenty minutes, mortar and pestle", "result": "crystallinity had been significantly reduced"}, {"measurement": "DVS % increase in mass at 90% RH", "setting": "[4]; 90% RH", "result": 0.1, "unit": "%"}, {"measurement": "Total uptake at 90% RH", "setting": "[4]; Irregular DVS (90 to 0% RH)", "result": 0.5, "unit": "%"}, {"measurement": "changes by XRPD re-analysis after DVS", "setting": "[4]; Irregular DVS (90 to 0% RH)", "result": "No significant changes"}, {"measurement": "total increase in mass (reversible isotherm)", "setting": "[4]; Irregular DVS (90 to 0% RH)", "result": "< 0.6", "unit": "%"}, {"measurement": "At 75% RH uptake", "setting": "[4]; [8]", "result": 0.15, "unit": "%"}, {"measurement": "Total uptake at 90% RH", "setting": "[4]; [8]", "result": 0.5, "unit": "%"}, {"measurement": "At 75% RH uptake", "setting": "[4]; Regular DVS (0 to 90% RH)", "result": "less than 0.08%"}, {"measurement": "Total uptake at 90% RH", "setting": "[4]; Regular DVS (0 to 90% RH)", "result": "approximately 0.1%"}, {"measurement": "changes by XRPD re-analysis after DVS", "setting": "[4]; Regular DVS (0 to 90% RH)", "result": "No significant changes"}, {"measurement": "hygroscopicity", "setting": "[4]; Regular DVS (0 to 90% RH), adsorption and desorption curves overlap", "result": "not hygroscopic"}, {"measurement": "At 75% RH uptake", "setting": "[4]; [9]", "result": 0.08, "unit": "%"}, {"measurement": "Total uptake at 90% RH", "setting": "[4]; [9]", "result": 0.1, "unit": "%"}, {"measurement": "Chemical Stability (HPLC (post 4 weeks at 40° C./75% RH (Area %)))", "setting": "[5]; 40° C./75% RH", "result": 99.0, "unit": "Area %"}, {"measurement": "forms arising on storage (water uptake)", "setting": "[5]; 40° C. and 75% RH, after 3 months", "result": "hydrate Forms HC0 and HD0"}, {"measurement": "HPLC % Compound I", "setting": "[5]; 40° C./75% RH, 5 days", "result": "99.2% Compound I,"}, {"measurement": "HPLC % Compound I", "setting": "[5]; 40° C./75% RH, 16 days", "result": "99.2% Compound I,"}, {"measurement": "HPLC % Compound I", "setting": "[5]; 40° C./75% RH, 29 days", "result": "99.2% Compound I,"}, {"measurement": "HPLC % Compound I", "setting": "[5]; 40° C./75% RH, 141 days", "result": "99.0% Compound I,"}, {"measurement": "XRPD (form found)", "setting": "[5]; 40° C./75% RH, 141 days", "result": "A0, HC0, HD0"}, {"measurement": "HPLC % Compound I", "setting": "[5]; 60° C./0% RH, 7 days", "result": "99.3% Compound I,"}, {"measurement": "HPLC % Compound I", "setting": "[5]; 60° C./0% RH, 14 days", "result": "99.1% Compound I,"}, {"measurement": "HPLC % Compound I", "setting": "[5]; 60° C./0% RH, 28 days", "result": "99.1% Compound I,"}, {"measurement": "HPLC % Compound I", "setting": "[5]; 110° C., 7 days", "result": "98.7% Compound I,"}, {"measurement": "HPLC % Compound I", "setting": "[5]; 110° C., 14 days", "result": "95.6% Compound I,"}, {"measurement": "HPLC % Compound I", "setting": "[5]; 110° C., 28 days", "result": "93.4% Compound I,"}, {"measurement": "form after slurrying in water", "setting": "[6]; slurried overnight in 2 ml water, all conditions investigated", "result": "converted to the hydrate forms (mixture of Forms HC0 and HD0)"}, {"measurement": "Forms Found (XRPD of residual solid)", "setting": "[6]; 5° C., 1 day", "result": "HC0, HD0"}, {"measurement": "Forms Found (XRPD of residual solid)", "setting": "[6]; 5° C., 4 days", "result": "HC0, HD0"}, {"measurement": "Forms Found (XRPD of residual solid)", "setting": "[6]; 45° C., 1 day", "result": "HA0, HC0"}]}
{"smiles": "COc1cccc2[nH]c3c4c(c5c(c3c12)C(=O)N(CN1CCN(C)CC1)C5=O)CCC4", "note": "[Form HD0, 4,5,6,7-tetrahydro-11-methoxy-2-[(4-methyl-1-piperazinyl)methyl]-1H-cyclopenta[a]pyrrolo[3,4-c]carbazole-1,3(2H)-dione]", "values": [{"measurement": "Total uptake at 90% RH", "setting": "[4]; Irregular DVS (90 to 0% RH)", "result": 0.8, "unit": "%"}, {"measurement": "changes by XRPD re-analysis after DVS", "setting": "[4]; Irregular DVS (90 to 0% RH)", "result": "No significant changes"}, {"measurement": "At 75% RH uptake", "setting": "[4]; [10]", "result": 0.4, "unit": "%"}, {"measurement": "Total uptake at 90% RH", "setting": "[4]; [10]", "result": 0.8, "unit": "%"}, {"measurement": "Total uptake at 90% RH", "setting": "[4]; Regular DVS (0 to 90% RH)", "result": 0.6, "unit": "%"}, {"measurement": "changes by XRPD re-analysis after DVS", "setting": "[4]; Regular DVS (0 to 90% RH)", "result": "No significant changes"}, {"measurement": "At 75% RH uptake", "setting": "[4]; [11]", "result": 0.4, "unit": "%"}, {"measurement": "Total uptake at 90% RH", "setting": "[4]; [11]", "result": 0.6, "unit": "%"}, {"measurement": "relative thermodynamic stability in solution", "setting": "[7]; between room temperature and 55° C.", "result": "more thermodynamically stable than Form HC0 and form HA0"}, {"measurement": "solubility relative to the other hydrated polymorph (Form HC0)", "setting": "[7]; ethyl acetate, MTBE, 1-pentanol, RT and 55° C.", "result": "always higher"}, {"measurement": "Chemical Stability (HPLC (post 4 weeks at 40° C./75% RH (Area %)))", "setting": "[5]; 40° C./75% RH", "result": 92.3, "unit": "Area %"}, {"measurement": "HPLC % Compound I", "setting": "[5]; 40° C./75% RH, 0 days", "result": "93.5% Compound I,"}, {"measurement": "XRPD (form found)", "setting": "[5]; 40° C./75% RH, 0 days", "result": "HD0"}, {"measurement": "HPLC % Compound I", "setting": "[5]; 40° C./75% RH, 7 days", "result": "92.2% Compound I,"}, {"measurement": "XRPD (form found)", "setting": "[5]; 40° C./75% RH, 7 days", "result": "HD0"}, {"measurement": "HPLC % Compound I", "setting": "[5]; 40° C./75% RH, 13 days", "result": "92.3% Compound I,"}, {"measurement": "XRPD (form found)", "setting": "[5]; 40° C./75% RH, 13 days", "result": "HD0"}, {"measurement": "HPLC % Compound I", "setting": "[5]; 40° C./75% RH, 28 days", "result": "92.3% Compound I,"}, {"measurement": "XRPD (form found)", "setting": "[5]; 40° C./75% RH, 28 days", "result": "HD0"}]}
